Each structure is given as a SMILES string.

The text below walks through data of patent US20180346446A1, “IRE1 SMALL MOLECULE INHIBITORS” (QUENTIS THERAPEUTICS, INC., priority 2017, published 2018).

In assay [1] the target is T1, IRE1a (Homo sapiens, UniProt O75460). The assay can be described thus: In vitro FRET assay (XBP1 RNA probe cleavage by IRE1a). Format: biochemical. Details: purchased SignalChem. To be noted: 2 nM IRE1a protein. As to the method:
In vitro FRET assay was performed to evaluate the ability of select compounds to inhibit IRE1, the results of which are summarized in Table 3. To perform the in vitro FRET assay, 1× complete assay buffer (CAB; […], 50 mM sodium citrate pH 7.15, ImM magnesium acetate, 0.02% tween 20) was used to dilute SignalChem IRE1a protein to a final concentration of 2 nM. Selected compounds were serially diluted with DMSO in a non-binding black 384-well plate for a total of 15 ul in each well. 2 ul of the serially diluted compound or DMSO control were then added to new wells containing 98 ul of 1×CAB, for a total volume of 100 ul, 10 ul of which were then transferred to wells of a new plate. 5 ul of the diluted IRE1a was then added to each well. 5 ul of a […] XBP1 RNA probe was then added to each well. Fluorescence was then read over 30 minutes in kinetic mode (485/515 nm).
Two RNA probes were used, XBP1 wildtype (SEQ ID NO: 2) which is able to be spliced by active IRE1a or XBP1 mutant (SEQ ID NO: 3) which is unable to be spliced. Each probe contained a 5′ 6-FAM modification and a 3′ IOWA Black FQ modification. […]

In assay [2] the target is T1, IRE1a. The assay can be described thus: IRE1a Endoribonuclease Nanoluciferase Assay (XBP1 luciferase reporter in 293T cells). Format: cell-based. The conditions noted are these: 293T cells transfected with XBP1 luciferase reporter, ER stressors +/- inhibitors. As to the method:
Compounds disclosed herein were assessed for disruption of IRE1 signaling using a IRE1a Endoribonuclease Nanoluciferase Assay. Briefly, 2.5×10^6 293T cells were seeded in a 10 cm^2 tissue culture plate. About 24 hours later, the cells were transfected with Effectene. In a 15 mL Tube, the following was added: 2 ug XBP1 luciferase reporter plasmid (PGK-Luc2-P2A-XBP1u-Nanoluciferase-PEST); 300 ul EC buffer; and 16 ul Enhancer, followed by incubation at room temp for 5 minutes. Next, 60 ul Effectene (Qiagen 301427) was added, followed by incubation at room temperature for 10 minutes. 2.6 mL cDMEM media was added. Old media was aspirated from the cells, followed by addition of 7 mL fresh media. Full transfection mixture was added dropwise to cells. Cells were incubated for 6 hours, followed by trypsinization, centrifugation and resuspension in 11 mL media. 100 uL of cells were plated per a well in a 96 well plate. A day later, ER stressors of choice +/− inhibitors were added. To harvest, media was aspirated from cells completely, then 50 uL 1× passive lysis buffer (Promega: E1941) was added per well and put on shaker (300 rpm) for 30 minutes at room temperature. Cells were centrifuged, and 15 uL sample per well was added to a new, opaque white 384 well plate (Corning 3570). 15 uL OneGlo (nanoluciferase kit, Promega N1630) was added. Plates were spun down, placed on shaker (300 rpm) for 10 minutes. Plates were read on luminometer, 1000 ms integration time per well. 15 uL Stop and Glo (nanoluciferase kit) was added. Plates were spun down, placed on shaker (300 rpm) for 10 minutes. Plates were read on luminometer, 1000 ms second integration time per well. Recordings are provided below in Table 4.

T1 sequence (O75460 19-977): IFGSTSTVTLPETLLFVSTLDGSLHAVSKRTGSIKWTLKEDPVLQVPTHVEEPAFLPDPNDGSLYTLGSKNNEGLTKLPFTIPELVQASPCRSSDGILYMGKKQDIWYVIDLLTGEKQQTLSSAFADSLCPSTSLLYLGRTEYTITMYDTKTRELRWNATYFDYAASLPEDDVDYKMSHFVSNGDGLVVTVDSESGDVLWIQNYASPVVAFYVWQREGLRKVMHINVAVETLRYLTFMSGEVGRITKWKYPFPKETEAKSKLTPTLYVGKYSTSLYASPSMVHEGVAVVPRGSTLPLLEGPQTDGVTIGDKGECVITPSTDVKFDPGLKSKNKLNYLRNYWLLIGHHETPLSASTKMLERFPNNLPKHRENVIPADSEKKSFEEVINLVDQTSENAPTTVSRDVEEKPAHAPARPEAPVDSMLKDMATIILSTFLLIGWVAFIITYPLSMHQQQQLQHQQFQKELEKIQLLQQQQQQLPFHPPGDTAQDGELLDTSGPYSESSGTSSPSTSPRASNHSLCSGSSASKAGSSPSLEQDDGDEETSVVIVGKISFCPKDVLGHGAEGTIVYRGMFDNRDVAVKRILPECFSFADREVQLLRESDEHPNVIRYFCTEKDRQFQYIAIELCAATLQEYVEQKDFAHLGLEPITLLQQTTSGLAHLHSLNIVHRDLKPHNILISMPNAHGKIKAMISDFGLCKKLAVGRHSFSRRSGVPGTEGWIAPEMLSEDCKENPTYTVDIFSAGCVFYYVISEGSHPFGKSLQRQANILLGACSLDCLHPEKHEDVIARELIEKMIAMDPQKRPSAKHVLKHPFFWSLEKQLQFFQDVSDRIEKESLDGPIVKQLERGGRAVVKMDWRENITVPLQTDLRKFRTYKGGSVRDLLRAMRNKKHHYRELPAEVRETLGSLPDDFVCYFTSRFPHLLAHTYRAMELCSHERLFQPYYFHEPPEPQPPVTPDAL

Regarding `CCc1cc(-c2cc(F)c(NS(=O)(=O)c3ccccc3Cl)cc2OC)cc2cnc(N[C@H]3CC[C@H](NC)CC3)nc12` [121; Formic Acid], at IRE1a [1], the IC50 is at most 5 nM. For the same molecule, the concentration for a half-maximal effect (EC50) on IRE1a [2] is at most 5 nM.

Consider `CCc1cc(-c2cc(OC)c(NS(=O)(=O)c3ccccc3Cl)nn2)cc2cnc(N[C@H]3CC[C@H](N)CC3)nc12` [66; Formic Acid], for which the IC50 against IRE1a [1] was at most 5 nM. In addition, at IRE1a [2], the EC50 lay within 50 to 100 nM.

Take `CCc1cc(-c2ccc(NS(=O)(=O)c3ccccc3Cl)c(F)c2)cc2cnc(NC34CCC(N)(CC3)CC4)nc12` [87; Formic Acid]: the IC50 on IRE1a [1] was at most 5 nM. Also, the EC50 at IRE1a [2] was at most 5 nM.

In turn, `CCc1cc(-c2ccc(NS(=O)(=O)c3ccccc3)nc2C)cc2cnc(N[C@H]3CC[C@H](N)CC3)nc12` [111; Formic Acid] had a half-inhibitory concentration (IC50) at IRE1a [1] of at most 5 nM. Moreover, the EC50 at IRE1a [2] lay within 50 to 100 nM.

As to `Cn1nc(NS(=O)(=O)c2ccccc2Cl)cc1-c1ccc2nc(N[C@H]3CC[C@H](N)CC3)ncc2c1` [Compound 1, N-(5-(2-(((1r,4r)-4-aminocyclohexyl)amino)quinazolin-6-yl)-1-methyl-1H-pyrazol-3-yl)-2-chlorobenzenesulfonamide], at IRE1a [1], the 50% inhibitory concentration (IC50) lay within 5 to 50 nM. The molecule also showed an EC50 at IRE1a [2] above 100 nM.

On IRE1a [1], `NC1CCCC(Nc2ncc3cc(-c4ccc(NS(=O)(=O)c5ccccc5Cl)c(F)c4)ccc3n2)C1` (stereo not shown) [75; Formic Acid] displayed an IC50 of at most 5 nM. At IRE1a [2], this molecule gave an EC50 above 100 nM.

Take `CCc1nc(NS(=O)(=O)c2ccccc2Cl)ccc1-c1cc(CC)c2nc(NC34CCC(N(C)C)(CC3)CC4)ncc2c1` [136; Formic Acid]: at IRE1a [1], the concentration for half-maximal inhibition (IC50) was at most 5 nM. The molecule also gave an EC50 at IRE1a [2] of at most 5 nM.

As to `COc1nc(NS(=O)(=O)c2ccccc2Cl)ccc1-c1cc2cnc(N[C@H]3CC[C@H](N)CC3)nc2cc1C` [104; Formic Acid], on IRE1a [1], the IC50 was at most 5 nM. Also, the 50% effective concentration (EC50) on IRE1a [2] was 50 to 100 nM.

The molecule `COc1nc(NS(=O)(=O)c2ccccc2Cl)ccc1-c1cc(C)c2nc(N[C@H]3CC[C@@H](N)CC3)ncc2c1` [138; Formic Acid] registered an IC50 at IRE1a [1] of at most 5 nM. The same molecule yielded an EC50 on IRE1a [2] of 50 to 100 nM.

Regarding `Cc1cc(NS(=O)(=O)c2ccccc2Cl)ncc1-c1ccc2nc(N[C@H]3CC[C@H](N)CC3)ncc2c1` [Compound 5, N-(5-(2-(((1r,4r)-4-aminocyclohexyl)amino)quinazolin-6-yl)-4-methylpyridin-2-yl)-2-chlorobenzenesulfonamide], the IC50 at IRE1a [1] was at most 5 nM. This molecule registered an EC50 on IRE1a [2] above 100 nM.

In the case of `COc1nc(NS(=O)(=O)c2ccccc2Cl)ccc1-c1cc(C(F)(F)F)c2nc(N[C@H]3CC[C@H](N)CC3)ncc2c1` [134; Formic Acid], on IRE1a [1], the IC50 was at most 5 nM. In addition, the half-maximal effective concentration (EC50) at IRE1a [2] is at most 5 nM.

`N[C@H]1CC[C@H](Nc2ncc3cc(-c4ncc(NS(=O)(=O)c5ccccc5Cl)cc4F)ccc3n2)CC1` [51; Formic Acid] displayed an IC50 against IRE1a [1] of at most 5 nM. Further, the 50% effective concentration (EC50) at IRE1a [2] lay within 50 to 100 nM.

`N[C@H]1CC[C@H](Nc2ncc3cc(-c4c(F)cc(NS(=O)(=O)c5ccccc5Cl)cc4F)ccc3n2)CC1` [62; Formic Acid] gave an IC50 against IRE1a [1] of at most 5 nM. The molecule further registered an EC50 on IRE1a [2] of 5 to 50 nM.

On to `CCc1cc(-c2cc(NS(=O)(=O)c3ccccc3Cl)no2)cc2cnc(N[C@H]3CC[C@H](N)CC3)nc12` [44; Formic Acid], for which, at IRE1a [1], the half-inhibitory concentration (IC50) was at most 5 nM. The concentration for a half-maximal effect (EC50) at IRE1a [2] was at most 5 nM.

For `CCc1cc(-c2ccc(NS(=O)(=O)c3ccccc3Cl)c(F)c2)cc2cnc(N[C@@H]3CC[C@@H](N)[C@H](C)C3)nc12` [74; Formic Acid], at IRE1a [1], the IC50 was at most 5 nM. Moreover, the EC50 on IRE1a [2] is at most 5 nM.

Regarding `CCc1cc(-c2ccc(NS(=O)(=O)c3ccccc3Cl)c(F)c2)cc2cnc(N[C@H]3CC4C[C@@H](N)CC4C3)nc12` (stereo partly shown) [84; Formic Acid], the IC50 at IRE1a [1] was at most 5 nM. Further, the EC50 on IRE1a [2] was 5 to 50 nM.

At IRE1a [1], `CCc1cc(-c2ccc(NS(=O)(=O)c3ccccc3Cl)c(F)c2)cc2cnc(N[C@@H]3CCC[C@H](N)C3)nc12` [72; Formic Acid] came in with an IC50 of at most 5 nM. The EC50 at IRE1a [2] is above 100 nM.
